Results published in US20120015961A1, “ISOTHIOUREA DERIVATIVES OR ISOUREA DERIVATIVES HAVING BACE1 INHIBITORY ACTIVITY” (SHIONOGI & CO., LTD., priority 2009, published 2012).

What was measured:
Recombinant human BACE1 = target: T1, Recombinant human BACE1 (Homo sapiens, UniProt P56817); assay: Assay of BACE1 inhibiting activity; format: biochemical; conditions: 50% inhibitory concentration against enzymatic activity, pH 5.0, 30° C., 3 hours
T1 construct: purchased R&D Systems
Experimental: 48.5 μL of substrate peptide solution (Biotin-XSEVNLDAEFRHDSGC-Eu: Xεε-amino-n-capronic acid, Eu=Europium cryptate) was added to each well of 96-hole half-area plate (a black plate: Costar Corporation), and after addition of 0.5 μl of the test compound (dissolved in […]) and 1 μl of Recombinant human BACE1 (R&D Systems), the reaction mixture was incubated at 30° C. for 3 hours. The substrate peptide was synthesized by reacting Cryptate TBPCOOH mono SMP (CIS bio international) with Biotin-XSEVNLDAEFRHDSGC (Peptide Institute, Inc.). The final concentrations of the substrate peptide and Recombinant human BACE1 were adjusted to 18 nM and 7.4 nM respectively, and the reaction was performed in sodium acetate buffer (50 mM sodium acetate, pH 5.0, 0.008% Triton X-100). After the completion of reaction, 50 μl of 8.0 μg/ml Streptavidin-XL665 (CIS bio international) dissolved in phosphate buffer (150 mM K2HPO4—KH2PO4, pH 7.0, 0.008% Triton X-100, 0.8 M KF) was added to each well and left stand at 30° C. for an hour. Then, fluorescence intensity was measured (excitation wavelength: 320 nm, measuring wavelength: 620 nm and 665 nm) using Wallac 1420 multilabel counter (Perkin Elmer life sciences). Enzymatic activity was determined from counting ratio of each wavelength (10,000×Count 665/Count 620) and 50% inhibitory concentration against the enzymatic activity was calculated.

[1] = tested on: Neuroblastoma SH-SY5Y cells (SH/APPwt) with human wild-type β-APP excessively expressed; assay: Measurement of β-amyloid (Aβ) production inhibitory effect in cell; format: cell-based; conditions: Homo sapiens, SH-SY5Y, 24 h, amount needed to inhibit Aβ production by 50%, 24 hours incubation, Amyloid β1-40 HTRF
Experimental: Neuroblastoma SH-SY5Y cells (SH/APPwt) with human wild-type β-APP excessively expressed therein were prepared at 8×10^5 cells/mL, and 150 μl portions thereof were inoculated into each well of a 96-well culture plate (Falcon). The cells were cultured for 2 hours at 37° C. in a 5% gaseous carbon dioxide incubator. Then, a solution which had been preliminarily prepared by adding and suspending the test compound (DMSO (dimethyl sulfoxide) solution) so as to be 2 μl/50 μl medium was added to the cell sap. Namely, the final DMSO concentration was 1%, and the amount of the cell culture was 200 μl. After the incubation was performed for 24 hours from the addition of the test compound, 100 μl of the culture supernatant was collected from each fraction. The amount of the Aβ in each fraction was measured.
The […] was measured as follows. 10 μl of a homogeneous time resolved fluorescence (HTRF) measurement reagent (Amyloid β1-40 peptide; IBA Molecular Holding, S.A.) and 10 μl of the culture supernatant were put into a 384-well half area microplate (black microplate, Costar) and mixed with each other, and then left standing overnight at 4° C. while the light was shielded. Then, the fluorescence intensity (excitation wavelength: 337 nm, measurement wavelength: 620 nm and 665 nm) was measured with a Wallac 1420 multilabel counter (Perkin Elmer life sciences). The Aβ amount was determined from the count rate at each measurement wavelength (10000×Count 665/Count 620), and the amount needed to inhibit Aβ production by 50% (IC50) was calculated from at least six different dosages.

hERG channel = target: T2, hERG channel (Homo sapiens, UniProt Q12809); assay: hERG test (whole-cell patch clamp); format: cell-based; conditions: HEK293 cells that express hERG, 5 μM test compound for 7 minutes, peak tail current, read-out: Inhibition Rate (%)
T2 construct: expressed in transfected cells; host or cells: HEK293
T2 sequence (Q12809 whole entry): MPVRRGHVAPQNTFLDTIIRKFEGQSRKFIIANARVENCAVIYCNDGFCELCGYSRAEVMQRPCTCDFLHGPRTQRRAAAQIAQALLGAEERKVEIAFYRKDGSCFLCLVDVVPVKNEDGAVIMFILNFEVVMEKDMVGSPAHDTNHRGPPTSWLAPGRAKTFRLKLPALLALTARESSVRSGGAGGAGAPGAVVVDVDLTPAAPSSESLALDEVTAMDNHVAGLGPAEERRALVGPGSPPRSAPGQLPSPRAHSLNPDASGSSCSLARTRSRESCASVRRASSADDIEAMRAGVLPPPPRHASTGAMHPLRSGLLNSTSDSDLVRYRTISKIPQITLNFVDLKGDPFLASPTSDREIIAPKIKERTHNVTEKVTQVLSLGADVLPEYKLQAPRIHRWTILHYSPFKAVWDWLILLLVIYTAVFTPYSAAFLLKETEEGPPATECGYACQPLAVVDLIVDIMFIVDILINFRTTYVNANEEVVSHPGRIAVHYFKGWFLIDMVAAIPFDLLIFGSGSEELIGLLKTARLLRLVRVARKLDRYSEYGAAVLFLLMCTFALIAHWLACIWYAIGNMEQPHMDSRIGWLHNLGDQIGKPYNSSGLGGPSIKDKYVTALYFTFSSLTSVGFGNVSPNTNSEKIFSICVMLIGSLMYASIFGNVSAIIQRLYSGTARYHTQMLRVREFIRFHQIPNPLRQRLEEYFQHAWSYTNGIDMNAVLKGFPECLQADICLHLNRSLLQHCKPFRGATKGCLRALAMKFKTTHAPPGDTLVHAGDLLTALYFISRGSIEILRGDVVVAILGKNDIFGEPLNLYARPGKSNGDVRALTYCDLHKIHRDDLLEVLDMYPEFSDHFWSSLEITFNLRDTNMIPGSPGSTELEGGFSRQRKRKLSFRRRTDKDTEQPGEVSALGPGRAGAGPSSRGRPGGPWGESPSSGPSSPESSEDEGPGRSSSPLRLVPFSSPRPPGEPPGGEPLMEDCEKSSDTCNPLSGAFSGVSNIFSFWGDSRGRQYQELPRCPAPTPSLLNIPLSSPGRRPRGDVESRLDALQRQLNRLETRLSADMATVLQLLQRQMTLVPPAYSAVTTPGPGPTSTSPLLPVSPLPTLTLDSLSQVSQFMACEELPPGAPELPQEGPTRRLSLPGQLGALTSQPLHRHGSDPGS
Experimental: As risk assessment for QT prolongation in vitro, the action on delayed rectifier potassium current was studied using a HEK293 cell with a human delayed potassium ether-a-go-go related gene (hERG) channel expressed therein.
A cell was maintained at a membrane potential of −80 mV, then +50 mV of a depolarizing stimulus (2 seconds) was applied to the cell, further −50 mV of a repolarizing stimulus (2 seconds) was applied thereto and the induced peak tail current was measured by a whole-cell patch clamp technique. 5 μM of the test compounds was applied to the cells for 7 minutes, the inhibition rate before application of the test compound was calculated, and it was compared to the rate of vehicle group (0.5% dimethylsulfoxide solution).

CYP3A4 = CYP3A4 (Homo sapiens, UniProt P08684); assay: CYP3A4 fluorescent MBI test; format: in vitro ADME; parameters: host or cells: E. coli; conditions: (IC50 without pre reaction) − (IC50 with pre reaction), pre-reaction 0 or 30 minutes
Chain of CYP3A4 (P08684 whole entry): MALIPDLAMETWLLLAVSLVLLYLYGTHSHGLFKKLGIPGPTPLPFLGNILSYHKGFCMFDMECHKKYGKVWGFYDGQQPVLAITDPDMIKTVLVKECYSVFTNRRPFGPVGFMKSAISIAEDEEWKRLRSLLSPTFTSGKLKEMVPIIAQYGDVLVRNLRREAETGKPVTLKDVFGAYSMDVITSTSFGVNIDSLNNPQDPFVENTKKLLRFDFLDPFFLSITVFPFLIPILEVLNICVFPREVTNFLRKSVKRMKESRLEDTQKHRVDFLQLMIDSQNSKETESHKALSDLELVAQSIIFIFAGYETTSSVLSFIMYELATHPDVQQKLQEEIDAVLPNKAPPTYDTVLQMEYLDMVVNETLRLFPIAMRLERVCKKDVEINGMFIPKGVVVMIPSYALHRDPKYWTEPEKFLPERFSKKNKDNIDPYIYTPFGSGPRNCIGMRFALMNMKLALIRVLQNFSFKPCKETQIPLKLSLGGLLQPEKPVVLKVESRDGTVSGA
Experimental: The CYP3A4 fluorescent MBI test is a test to examine enhancement of CYP3A4 inhibition by metabolic reaction of the compound. Here, E. coli-expressing CYP3A4 was used as an enzyme, and a reaction wherein 7-benzyloxy trifluoromethylcumarin (BFC) was debenzylated by the CYP3A4 enzyme into a fluorescent metabolite 7-hydroxytrifluoromethylcumarin (HFC) was employed as an indicator reaction. The reaction conditions were as follows.
Substrate: 5.6 μM/L 7-BFC
Pre-reaction time: 0 or 30 minutes
Reaction time: 15 minutes
Reaction temperature: 25° C. (room temperature)
CYP3A4 content (E. coli-expressing enzyme): 62.5 pmol/mL at pre-reaction, 6.25 pmol/mL at reaction (10-fold diluted)
Test compound concentration: 0.625, 1.25, 2.5, 5, 10, and 20 μM (six different concentrations).
The enzyme and a test compound solution were added to a K-Pi buffer (pH 7.4) in the aforementioned amounts for the pre-reaction so that a pre-reaction solution was prepared, and this solution was put into a 96-well microplate. Part of this solution was transferred to another 96-well microplate such that it was diluted with the substrate and the K-Pi buffer to get a 10-fold diluted solution. NADPH, which is a coenzyme, was added so as to trigger the indicator reaction (without pre-reaction). As the reaction proceeded for a predetermined time period, acetonitrile/0.5 M Tris (tris hydroxyaminomethane)=4/1 was added to terminate the reaction. NADPH was also added to the residual pre-reaction solution so as to trigger the pre-reaction (with pre-reaction). As the pre-reaction proceeded for a predetermined time period, part of the solution was transferred to another microplate so that the solution was diluted with the substrate and the K-Pi buffer to get a 10-fold diluted solution, and then the indicator reaction was triggered. As the reaction proceeded for a predetermined time period, acetonitrile/0.5 M Tris (tris hydroxyaminomethane)=4/1 was added so as to terminate the reaction. With respect to each of the microplates on which the indicator reaction was performed, the fluorescence value of the metabolite 7-HFC was measured with a fluorescence plate reader (Ex=420 nm, Em=535 nm).
Control (100%) was prepared by adding only DMSO, which was used as a solvent to dissolve the drug, to the reaction system. The remaining activity (%) at each concentration after adding the test compound solution was calculated, and the IC50 values of without pre reaction and with pre reaction were calculated by the formula: y=A+((B−A)/(1+((C/x)^D))) using XLfit. The IC50 shift value was calculated by the formula: (the IC50 value of without pre reaction)−(the IC50 value of with pre reaction).

Solubility test = format: physicochemical; conditions: JP-I medium with 2% DMSO, pH 1.2, simulated gastric fluid, kinetic from dmso stock, turbidity after 4 hours
Experimental: A 2-fold dilution series (12 points) of a 10 mM solution of a test compound in DMSO was added to a medium (JP-I, JP-II) (2%), and solubility was assessed by 3 stages (High; >40 μM, Medium; 3-40 μM, Low; <3 μM) from a turbidity after 4 hours (crystallization information).

T1 sequence (P56817 46-501): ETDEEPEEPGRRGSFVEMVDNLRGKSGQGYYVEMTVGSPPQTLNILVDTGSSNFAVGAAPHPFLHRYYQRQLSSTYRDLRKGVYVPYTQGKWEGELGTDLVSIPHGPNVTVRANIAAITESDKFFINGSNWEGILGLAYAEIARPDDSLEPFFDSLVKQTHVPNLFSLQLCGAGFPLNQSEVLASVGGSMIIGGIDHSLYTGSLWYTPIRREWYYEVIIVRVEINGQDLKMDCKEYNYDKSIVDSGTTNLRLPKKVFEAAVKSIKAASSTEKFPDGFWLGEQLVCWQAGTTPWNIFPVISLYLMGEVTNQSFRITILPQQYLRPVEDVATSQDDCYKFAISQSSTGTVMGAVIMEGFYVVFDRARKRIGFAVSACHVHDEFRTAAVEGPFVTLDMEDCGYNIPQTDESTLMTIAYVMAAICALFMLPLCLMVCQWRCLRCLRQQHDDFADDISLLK

| Structure (SMILES) | IC50 (Recombinant human BACE1) [nM] | IC50 [1] [nM] | inhibition at 7 min, 5 µM (hERG channel) [%] | IC50 shift (CYP3A4) [nM] | solubility at 4 h (Solubility test) [µM] |
| --- | --- | --- | --- | --- | --- |
| CS/C(N)=N\C1(c2cc(NC(=O)c3ccc(C#N)cn3)ccc2F)CC1 [Compound 1] | 3670 | 55 | 63.8 | 0 | – |
| CS/C(N)=N\Cc1cc(NC(=O)c2ccc(C#N)cn2)ccc1F [Compound 2] | – | 100 | – | 0 | – |
| CC#CCOc1cnc(C(=O)Nc2cccc(C/N=C(/N)SC)c2)cn1 [Compound 3] | 130 | 5 | 67.6 | 0 | – |
| CC#CCOc1cnc(C(=O)Nc2cccc(C/N=C(/N)SCc3ccccc3)c2)cn1 [Compound 4] | ≤ 1000 | 119 | – | 1000 | – |
| C=CCS/C(N)=N\Cc1cccc(NC(=O)c2cnc(OCC#CC)cn2)c1 [Compound 5] | ≤ 1000 | 160 | – | -2000 | – |
| CC#CCOc1cnc(C(=O)Nc2cccc(C/N=C(/N)SCCc3ccccc3)c2)cn1 [Compound 6] | ≤ 1000 | 172 | – | -2000 | – |
| CC#CCOc1cnc(C(=O)Nc2cccc(C/N=C(/N)SCC)c2)cn1 [Compound 7] | 1210 | 82 | – | <-2000 | – |
| CC#CCOc1cnc(C(=O)Nc2cccc(C/N=C(/N)SCCC)c2)cn1 [Compound 8] | ≤ 1000 | 40 | – | -4000 | – |
| CC#CCOc1cnc(C(=O)Nc2cccc(C/N=C(/N)SCCCC)c2)cn1 [Compound 9] | ≤ 1000 | 61 | – | -5000 | – |
| CC#CCOc1cnc(C(=O)Nc2cccc(C/N=C(/N)SCc3ccccn3)c2)cn1.O=CO [Compound 11] | 290 | 524 | – | -2000 | – |
| CC#CCOc1cnc(C(=O)Nc2cccc(C/N=C(/N)SCc3ccncc3)c2)cn1.O=CO [Compound 12] | 270 | 36 | – | <-2000 | – |
| CC#CCOc1cnc(C(=O)Nc2ccc(F)c(C3(/N=C(/N)SC)CC3)c2)cn1 [Compound 15] | 140 | 4 | 31.5 | <-3000 | – |
| CS/C(N)=N\Cc1cccc(NC(=O)c2cnc(C)cn2)c1 [Compound 18] | – | – | 10.8 | 0 | – |
| CS/C(N)=N\c1cccc2ccc(NC(=O)c3ccc(C#N)cn3)cc12 [Compound 28] | 790 | 193 | 60.4 | 1000 | > 40 |
| CS/C(N)=N\C1(c2cccc(NC(=O)c3cnc(C)cn3)c2)CCCC1 [Compound 30] | – | – | 14.1 | 0 | – |
| CS/C(N)=N\C1(c2cccc(NC(=O)c3ccc(C#N)cn3)c2)CCCC1 [Compound 31] | – | ≤ 1000 | – | – | > 40 |
| CS/C(N)=N/C1CCc2ccc(NC(=O)c3ccc(C#N)cn3)cc21 (stereo not shown) [Compound 32] | – | 260 | – | 0 | – |
| CN(C)CCCO/C(N)=N/Cc1cccc(NC(=O)c2ccc(C#N)cn2)c1 [Compound 38] | – | ≤ 1000 | 8.4 | – | – |
| CO/C(N)=N\Cc1cc(NC(=O)c2cnc(C)cn2)ccc1F [Compound 40] | – | ≤ 1000 | – | – | > 40 |
| CO/C(N)=N\C1(c2cccc(NC(=O)c3cnc(OC)cn3)c2)CC1 [Compound 45] | – | 28 | 2.5 | – | > 40 |
